Test system: obese diabetic mice of the Umeå ob/ob strain
Experiment: Biological activity in obese diabetic ob/ob mice (plasma glucose, insulin, triglycerides; weight gain)
Assay type: in vivo
Settings: gavage once daily for 7 days
Description: The biological activity of the compound of the invention was tested in obese diabetic mice of the Umea ob/ob strain. Groups of mice received the test compound by gavage once daily for 7 days. On the last day of the experiment the animals were anesthetized 2h after dose in a non-fed state and blood was collected from an incised artery. Plasma was analyzed for concentration of glucose, insulin and triglycerides. A group of untreated obese diabetic mice of the same age served as control. The weight of the mice was measured before and after the experiment and the obtained weight gain was compared to the weight gain of the control animals. The individual values for glucose, insulin and triglyceride levels of the mice from the test group were expressed as the percent rage of the corresponding values from the control group.
The desired “therapeutic effect” was calculated as the average percent reduction of the three variables glucose, insulin and triglycerides below the levels in the control animals. The therapeutic effect of the tested compounds according to the invention was compared to the same effect in the prior art compound troglitazone, administrered by gavage in the oral dose of 100 μmol/kg for 7 days.

CCO[C@@H](Cc1ccc(OCCc2ccc(OS(C)(=O)=O)cc2)cc1)C(=O)O [Example 1, (S)-2-Ethoxy-3-[4-(2-{4-methanesulfonyloxyphenyl}ethoxy)phenyl]propanoic acid]
therapeutic effect (average percent reduction of glucose, insulin and triglycerides below the levels in the control animals) (plasma 2h after last dose, non-fed, compared to troglitazone given in the same oral dose (100 μmol/kg for 7 days)): superior effects | weight gain compared to the weight gain of the control animals (weight measured before and after the experiment): without undesirable weight gain

Reference: patent US6660879B2, “3-aryl-2-hydroxypropionic acid derivative I” (AstraZeneca AB, priority 1998, dated 2003)
